Active and inactive are the calls of the source.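 The calls were made as follows: active = 40% activation versus positive control reached by fitted dose-response curve at or below highest valid tested dose; inconclusive = poor fit quality, or flat fit with activation between 30% and 70%; inactive = the rest.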
Test: Xi-linked GFP reactivating small molecules – imaging, 68-5-11 mouse fibroblasts, cherry-pick, dose response (AID 743394);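 also: sensitizer 5-aza-dC present in the wells at 0.5 mM final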
Conditions: 68-5-11 mouse fibroblast XiGFP reporter, % GFP-positive imaging, 3 d; at 19.5 µM (top of the series); cells co-treated with 5-aza-dC sensitizer; scaled: neutral wells 0, ellipticine wells 100

SMILES | activation
O=[N+]([O-])c1ccccc1-c1ccc(C(=S)N2CCN(c3ccccc3)CC2)o1 | 0.417% (inactive)
CN(Cc1cccs1)C(=O)Cc1c[nH]c2ccccc12 | -0.024% (inactive)
O=C(c1cnccn1)N1CC(=O)N2[C@H](CO)[C@@H](c3ccc(-c4cccc(F)c4)cc3)[C@@H]2C1 | -0.014% (inactive)
COC(=O)c1c(NC(=O)c2ccc(C)cc2)csc1C | 0.018% (inactive)
COC(=O)CCN1CCC(c2cc(-c3cccc(C(F)(F)F)c3)n[nH]2)CC1 | 0.056% (inactive)
CCCNC(=O)N1CC2(CN(S(C)(=O)=O)C2)c2c(n(C)c3cc(OC)ccc23)[C@H]1CO | 0.016% (inactive)
COc1ccc(-c2ccc(C3[C@@H]4CN(S(=O)(=O)c5ccccc5C)C[C@H]3N4)cc2)cc1 (some centres not stated) | 0% (inactive)
CO[C@H]1CN(C)C(=O)c2ccc(NC(=O)C3CCCCC3)cc2OC[C@H](C)NC[C@@H]1C | 0.017% (inactive)
O=C(N/N=C/c1ccc([N+](=O)[O-])o1)c1cc2ccccc2o1 | 4.43% (inactive)
COc1ccc(NC(=O)Nc2ccc3c(c2)C(=O)N([C@H](C)CO)C[C@H](C)[C@H](CN(C)Cc2ccc4c(c2)OCO4)O3)cc1 | -0.031% (inactive)
COc1ccc2c3c([nH]c2c1)[C@@H](CO)N(Cc1cc(F)ccc1F)CC31CCN(C(C)=O)CC1 | -0.023% (inactive)
Cc1ccc(S(=O)(=O)N(C)C[C@H]2Oc3ccc(NC(=O)Nc4ccccc4)cc3CC(=O)N([C@H](C)CO)C[C@@H]2C)cc1 | -0.035% (inactive)
Cc1ccsc1/C=N/n1c(-c2cc(-c3ccccc3)n[nH]2)n[nH]c1=S | 0.001% (inactive)
CCSc1nnc(NC(=O)c2cc(OC)c(OC)c(OC)c2)s1 | 0.316% (inactive)
CC(C)c1cc(C(=O)N/N=C/c2cccnc2)cs1 | 0.54% (inactive)
CCC(=O)N1CC(=O)N2[C@@H](CO)[C@@H](c3ccc(-c4ccccc4F)cc3)[C@@H]2C1 | 0% (inactive)
C[C@@H]1CCCCO[C@H](CN(C)C(=O)Nc2ccc(C(F)(F)F)cc2)[C@H](C)CN([C@H](C)CO)C(=O)c2cc(NC(=O)CCC(F)(F)F)ccc2O1 | 0.24% (inactive)
CC(=O)Nc1sc(C)c(C)c1C(=O)OCC(=O)Nc1cc(S(C)(=O)=O)ccc1Cl | 0.641% (inactive)
Cc1ccc(NC(=O)COc2ccc(-c3nnco3)cc2)cc1S(=O)(=O)N1CCOCC1 | -0.044% (inactive)
NS(=O)(=O)c1cccc(-n2cnnn2)c1 | 0.065% (inactive)
O=C(Nc1cccc(C(=O)O)c1)/C(=C\c1ccccc1)NC(=O)c1ccc(Br)o1 | 0.02% (inactive)

SMILES | activation
CN(C)CCN(C(=O)c1ccc(S(=O)(=O)N(C)c2ccccc2)cc1)c1nc2cc3c(cc2s1)OCCO3 | -0.008% (inactive)
C/C(=N\NC(=O)CC1N=C(Cc2ccccc2)NNC1=O)c1ccc(Br)cc1 (configuration not stated) | 0.028% (inactive)
Cc1ccc(S(=O)(=O)N2CCN(C(=O)COC(=O)c3ccccc3OC(F)F)CC2)c(C)c1 | -0.006% (inactive)
COCCN(C(=S)Nc1cccc(C)c1)C(C)c1cccnc1 (configuration not stated) | 0.005% (inactive)
CC(=O)Nc1ccc(S(=O)(=O)N(C)c2ccc(OCC(=O)NCCc3ccccc3F)cc2)cc1 | -0.07% (inactive)
COc1ccc(N2CCN(C(=O)c3cc4c(s3)-c3ccccc3OC4)CC2)cc1 | 0.457% (inactive)
CCOC(=O)C1CCN(c2c(NCc3ccc(C(=O)NC4CCCC4)cc3)c(=O)c2=O)CC1 | -0.034% (inactive)
CCCCNc1nc2c(-c3ccccc3)nnn2c2ccccc12 | 0.101% (inactive)
COc1cc(/C=C/c2ccc3cccc(O)c3n2)cc(OC)c1OC | -0.032% (inactive)
CCCOc1ccc(Oc2nc(-c3ccncc3)nc3ccccc23)cc1 | 0.003% (inactive)
CC(=O)Oc1ccc2c(=O)c(-c3ccccc3)coc2c1 | 0.086% (inactive)
Nc1ccccc1C#CC(=O)c1ccccc1 | -0.07% (inactive)
CS(=O)(=O)c1ccc(S(=O)CC(=O)OCc2ccccc2)c([N+](=O)[O-])c1 (configuration not stated) | -0.127% (inactive)
Cc1cccc2sc(N(CCCN(C)C)C(=O)CN3C(=O)c4ccccc4C3=O)nc12 | -0.047% (inactive)
COc1ccc2c3c(n(C)c2c1)[C@@H](CO)N(C)CC31CN(C(=O)NC(C)C)C1 | -0.012% (inactive)
CCCOc1ccc(C(=O)Nc2ccc(CN3CCOCC3)cc2)cc1 | -0.053% (inactive)
Oc1ccc(Cl)cc1C=Nc1ccc2c3c(cccc13)CC2 | 0.039% (inactive)
CCC(C)c1nc2ccsc2c(N2CCOC2=O)c1-c1ccccc1 (configuration not stated) | -0.032% (inactive)
OC[C@@H]1Nc2ccc(C#Cc3ccccc3)cc2[C@H]2[C@@H]1CCN2Cc1nccs1 | 0.161% (inactive)
CN(C)CC(=O)N1CC2(C1)[C@@H](c1ccccc1)[C@H](CO)N2C(=O)C1CC1 | -0.015% (inactive)
CCc1ccc(NS(=O)(=O)c2cccc3nonc23)cc1 | -0.121% (inactive)

SMILES | activation
C[C@@H]1C[C@H]2[C@@H]3CCC4=CC(=O)C=C[C@]4(C)[C@@]3(F)[C@@H](O)C[C@]2(C)[C@H]1C(=O)CO | 0.179% (inactive)
CCN(CC)c1ccc(N=Cc2ccc([N+](=O)[O-])o2)cc1 | 0.626% (inactive)
Cc1ccc(NCc2nnc(SCC(=O)NNC(=O)Cc3ccccc3)n2C)cc1 | 0.012% (inactive)
CCOC(=O)C1=c2/c(=C/c3ccncc3)c(N)c(C(=O)OC)n2C(=O)C(c2ccncc2)S1 (configuration not stated) | 0.188% (inactive)
COCCN(C(=O)c1ccc2c(c1)C(=O)N(c1ccccc1Cl)C2=O)c1c(N)n(CC(C)C)c(=O)[nH]c1=O | 0.738% (inactive)
CCOc1ccc(CCN2C(=S)N([C@@H](Cc3ccccc3)CN3CCC[C@@H]3CN3C(=S)NC[C@@H]3CC(C)C)C[C@@H]2Cc2ccccc2)cc1 | 0.011% (inactive)
Nc1ccc(-c2nc3ccccc3[nH]2)cc1 | -0.039% (inactive)
CN1OC[C@@H]2CN(Cc3ccccc3)[C@H](c3cccc(N4CCOCC4)c3)C[C@@H]21 | 0.022% (inactive)
O=C1C=CC(=O)C(CNc2ccc(C(=O)OCc3ccccc3)cc2)=C1 | -0.05% (inactive)
COC(=O)c1cnn(-c2ccccc2)c1N | 0.12% (inactive)
C=CC[C@@H](CC(=O)N(CCO)Cc1ccccc1)C(=O)NCCOC(=O)[C@@H](CC=C)Cc1ccc(F)cc1 | -0.009% (inactive)
Cc1cccc(CS(=O)(=O)Cc2ccc(C(=O)NCc3cccs3)o2)c1 | 0% (inactive)
COc1cccc2cc(C(=O)N(Cc3cccs3)CC3CCCO3)c(=O)oc12 (configuration not stated) | -0.044% (inactive)
COc1ccc(S(=O)(=O)Nc2cccc3c2O[C@H](CN(C)S(=O)(=O)c2cn(C)cn2)[C@H](C)CN([C@H](C)CO)C3=O)cc1 | -0.035% (inactive)
O=C1CSC(c2cccnc2)N1Cc1ccc(Cl)cc1Cl (configuration not stated) | -0.022% (inactive)
CC(=O)c1cccc(-c2ccc3c(c2)C(C)(Cc2ccc(S(C)(=O)=O)cc2)C(=O)N3)c1 (configuration not stated) | -0.032% (inactive)
COc1ccc(-c2ccc(C#N)c(SCC(=O)NCc3ccco3)n2)cc1OC | 2.59% (inactive)
NNC(=O)c1sc(-c2ccc(Cl)cc2)cc1N | 2.31% (inactive)
CC(=O)Nc1ccc(NS(=O)(=O)c2ccc3c(c2)oc(=O)n3C)cc1 | 5.23% (inactive)
CC(=O)c1c(COC(=O)c2ccccc2Cl)nc2ccccc2[n+]1[O-] | 0.188% (inactive)

Reference: PubChem BioAssay AID743394 (Broad Institute, 2014)
